According to patent US20110104055A1, “SUBSTITUTED N-ARYL BENZAMIDES AND RELATED COMPOUNDS FOR TREATMENT OF AMYLOID DISEASES AND SYNUCLEINOPATHIES” (priority 2002, published 2011):

What was measured:
Format in all cases: biochemical
Aβ 1-42 fibrils [1] = target: T1, Aβ 1-42 fibrils (Homo sapiens, UniProt P05067); assay: Thioflavin T fluorometry, disruption of pre-formed Aβ 1-42 fibrils (Example 11); details: 3 days; for % Inhibition Aβ (result ± S.D.), Thioflavin T fluorometry: 30 μg pre-fibrillized Aβ 1-42, 37° C.
T1 construct: purchased Bachem Inc
T1 sequence (P05067 672-713): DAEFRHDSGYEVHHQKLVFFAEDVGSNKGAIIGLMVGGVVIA
Excerpt: (§1) In one study, Thioflavin T fluorometry was used to determine the effects of the compounds, and of EDTA (as a negative control). In this assay Thioflavin T binds specifically to fibrillar amyloid, and this binding produces a fluorescence enhancement at 485 nm that is directly proportional to the amount of amyloid fibrils formed. The higher the fluorescence, the greater the amount of amyloid fibrils formed (Naki et al., Lab. Invest. 65:104-110, 1991; Levine III, Protein Sci. 2:404-410, 1993; Amyloid: Int. J. Exp. Clin. Invest. 2:1-6, 1995).
(§2) Following 3-days of co-incubation, 50 μl of each incubation mixture was transferred into a 96-well microtiter plate containing 150 μl of distilled water and 50 μl of a Thioflavin T solution (i.e. 500 mM Thioflavin T in 250 mM phosphate buffer, pH 6.8). The fluorescence was read at 485 nm (444 nm excitation wavelength) using an ELISA plate fluorometer after subtraction with buffer alone or compound alone, as blank.

Aβ 1-42 fibrils [2] = target: T1, Aβ 1-42 fibrils; assay: Thioflavin T fluorometry, disruption of pre-formed Aβ 1-42 fibrils (Example 6); details: 3 days; for % inhibition of Aβ (Thioflavin T fluorometry): 25 μM pre-fibrillized Aβ 1-42, 37° C.
Description: The biological activity of the compounds provided herein as disruptors/inhibitors of Alzheimer's disease β-amyloid protein (Aβ) fibrils, type 2 diabetes IAPP fibrils and Parkinson's disease NAC fibrils was assessed by determining the efficacy of the compounds to cause a disassembly/disruption of pre-formed amyloid fibrils of Alzheimer's disease (i.e. consisting of Aβ 1-42 fibrils), IAPP fibrils and Parkinson's disease NAC fibrils. In one study, Thioflavin T fluorometry was used to determine the effects of the compounds, and of EDTA (as a negative control). In this assay Thioflavin T binds specifically to fibrillar amyloid, and this binding produces a fluorescence enhancement at 485 nm that is directly proportional to the amount of fibrils present. The higher the fluorescence, the greater the amount of fibrils present (Naki et al, Lab. Invest. 65:104-110, 1991; Levine III, Protein Sci. 2:404-410, 1993; Amyloid: Int. J. Exp. Clin. Invest. 2:1-6, 1995). The disruption of Aβ 1-42, even in its monomeric form, was confirmed by a study involving the use of SDS-PAGE and Western blotting methods.
as §1
as §2, with “3 days” for “3-days”, “blank).” for “blank.”

α-synuclein fibrils = target: T2, α-synuclein fibrils (Homo sapiens, UniProt P37840); assay: Congo red binding assay, α-synuclein fibrils (Example 12); details: 3-day incubation
T2 construct: purchased rPeptide
Description: (§3) In the Congo red binding assay, the ability of a given test compound to alter amyloid (in this case, α-synuclein) binding to Congo red is quantified. In this assay, α-synuclein and test compounds were incubated for 3 days and then vacuum filtered through a 0.2 μm filter. The amount of α-synuclein retained in the filter was then quantitated following staining of the filter with Congo red. After appropriate washing of the filter, any lowering of the Congo red color on the filter in the presence of the test compound (compared to the Congo red staining of the amyloid protein in the absence of the test compound) was indicative of the test compound's ability to diminish/alter the amount of aggregated and congophilic α-synuclein.
In one study, the ability of α-synuclein fibrils to bind Congo red in the absence or presence of increasing amounts of compounds DC-0051-F1, F2, F3, F4, F5, F6 and EDTA (at α-synuclein:test compound weight ratios of 1:1, 1:0.1, 1:0.01 or 1:0.001) was determined.

Aβ 1-42 fibrils [3] = target: T1, Aβ 1-42 fibrils; assay: Congo red binding assay, Aβ 1-42 fibrils (Example 6); details: 3-day incubation
Description: as §3, with “binding assay” for “binding assay,”, “amyloid (Aβ 1-42 fibrils, IAPP fibrils or NAC fibrils)” for “amyloid (in this case, α-synuclein)”, “red was” for “red is”, “assay, Aβ 1-42 fibrils, IAPP fibril or NAC fibrils” for “assay, α-synuclein”, “of Aβ 1-42 fibrils, IAPP fibrils or NAC fibrils” for “of α-synuclein”, “congophilic Aβ 1-42 fibrils, IAPP fibrils or NAC fibrils.” for “congophilic α-synuclein.”
In the Congo red binding assay the ability of a test compound to alter amyloid (in this case, Aβ) binding to Congo red is quantified. In this assay, Aβ 1-42 and test compounds were incubated for 3 days and then vacuum filtered through a 0.2 μm filter. The amount of Aβ 1-42 retained in the filter was then quantified following staining of the filter with Congo red. After appropriate washing of the filter, any lowering of the Congo red color on the filter in the presence of the test compound (compared to the Congo red staining of the amyloid protein in the absence of the test compound) was indicative of the test compound's ability to diminish/alter the amount of aggregated and congophilic Aβ.
In one study, the ability of Aβ fibrils to bind Congo red in the absence or presence of increasing amounts of the compounds or EDTA (at Aβ:test compound weight ratios of 1:0.001, 1:0.01, 1:0.1 and 1:1) was determined.

[4] = Aβ:test compound wt/wt ratio 1:0.001
[5] = Aβ:test compound wt/wt ratio 1:0.01
[6] = Aβ:test compound wt/wt ratio 1:0.1
[7] = Aβ:test compound wt/wt ratio 1:1
[8] = Thioflavin T fluorometry, all concentrations tested

## O=C(O)CN(CCN(CC(=O)O)CC(=O)O)CC(=O)O [EDTA]
Aβ 1-42 fibrils [1]; [4]
  % Inhibition Aβ (result ± S.D.), Thioflavin T fluorometry: 0.0 ± 1.70%
Aβ 1-42 fibrils [1]; [5]
  % Inhibition Aβ (result ± S.D.), Thioflavin T fluorometry: 2.4 ± 2.86%
Aβ 1-42 fibrils [1]; [6]
  % Inhibition Aβ (result ± S.D.), Thioflavin T fluorometry: 0.0 ± 6.02%
Aβ 1-42 fibrils [1]; [7]
  % Inhibition Aβ (result ± S.D.), Thioflavin T fluorometry: 0.0 ± 3.46%
Aβ 1-42 fibrils [1]; [8]
  disruption/disassembly of preformed Aβ 1-42 fibrils, in words: no significant inhibition
Aβ 1-42 fibrils [2]; [5]
  % inhibition of Aβ (Thioflavin T fluorometry): 0.2 ± 3.03%
Aβ 1-42 fibrils [2]; [7]
  % inhibition of Aβ (Thioflavin T fluorometry): 0.0 ± 3.59%
Aβ 1-42 fibrils [2]; [8]
  disruption/disassembly of preformed Aβ 1-42 fibrils, in words: no significant inhibition/disruption
α-synuclein fibrils; all concentrations tested
  inhibition of α-synuclein fibril binding to Congo red, in words: no significant inhibition
α-synuclein fibrils; α-synuclein:test compound wt/wt ratio 1:0.001
  % Inhibition α-synuclein (result ± S.D.), Congo red binding: 3.3 ± 1.85%
α-synuclein fibrils; α-synuclein:test compound wt/wt ratio 1:0.01
  % Inhibition α-synuclein (result ± S.D.), Congo red binding: 2.9 ± 5.0%
α-synuclein fibrils; α-synuclein:test compound wt/wt ratio 1:0.1
  % Inhibition α-synuclein (result ± S.D.), Congo red binding: 2.2 ± 5.16%
α-synuclein fibrils; α-synuclein:test compound wt/wt ratio 1:1
  % Inhibition α-synuclein (result ± S.D.), Congo red binding: 0.0 ± 5.50%
Aβ 1-42 fibrils [3]
  inhibition of Aβ 1-42 fibril binding to Congo red, in words: no significant inhibition
Aβ 1-42 fibrils [3]; [4]
  % inhibition of Aβ (Congo red binding): 0.0 ± 0.62%
Aβ 1-42 fibrils [3]; [5]
  % inhibition of Aβ (Congo red binding): 0.0 +/− 0.49%
Aβ 1-42 fibrils [3]; [6]
  % inhibition of Aβ (Congo red binding): 0.0 ± 0.76%
Aβ 1-42 fibrils [3]; [7]
  % inhibition of Aβ (Congo red binding): 3.9 +/− 1.37%
